Experimental findings from patent publication US11926826B2, “Twist signaling inhibitor compositions and methods of using the same” (City of Hope, priority 2016, dated 2024) are described below.

For series [1], the system named is TWIST. Kind of series: TWIST knockdown after YTZ3-15 delivery of siRNA in ovarian cancer cell lines. In kind it is cell-based. The protocol:
PAMAM dendrimer design and delivery. The polyamidoamine (PAMAM) dendrimer used in this study is the […] third generation dendrimer, illustrated in FIG. 16A and previously described. To complex the dendrimer with siRNA, YTZ3-15 at 240 μM was mixed with […] in OptiMEM Low Serum Medium (Thermo Fisher). Upon complexing with siRNA, dendrimers form micelle structures with siRNA at the surface and the hydrophobic tails sequestered in the core (FIG. 16B). 14.6 μl YTZ3-15 and 10 μl siRNA were used per well of a 6-well plate. Final concentrations of YTZ3-15 and siRNA once added to cells were 1.75 μM and 50 nm, respectively. Where indicated, 3.5 μM YTZ3-15 and 100 nm siRNA were used for Ovcar8.
(§1) Western Blotting. Following siRNA treatment, cells were pelleted and lysed in RIPA buffer. Protein concentration was determined by BCA assay (Thermo Fisher). Following SDS-PAGE, protein was transferred to Amersham PVDF membrane (Genesee Scientific) using a BioRad Trans-Blot SD semi-dry transfer unit. Blots were then blocked in milk for one hour at room temperature or overnight at 4° C. Incubation with primary antibody took place for one hour at room temperature or overnight at 4° C. Antibodies were diluted in 5% milk, with 0.1-0.2% Tween-20. Antibodies used were TWIST 2c1a (Santa Cruz Biotechnology, Dallas, TX) at 1:250-1:500 dilution, β-Actin, A1978 (Sigma Aldrich, St. Louis, MO) at 1:2500-1:5000 dilution; and Horseradish Peroxidase (HRP) conjugated anti-mouse secondary antibodies. For film-based westerns, Blue Devil film (Genesee Scientific) and ECL Plus chemiluminescent substrate (Thermo Fisher) were used to detect protein. For digital westerns, the Syngene Pxi4 digital blot imager and Michigan Diagnostics FemtoGlow chemilumescent substrate were used.

The test system of series [2] is TWIST. Description: TWIST knockdown after MSN delivery of siRNA in ovarian cancer cell lines. To be noted: A2780R and Ovcar8; loaded onto MSNs. It is filed as cell-based. On the procedure: MSN design and delivery. Mesoporous silica nanoparticles (MSNs) were synthesized utilizing the sol-gel method as described previously. First, 250 mg 95% cetyltrimethylammonium bromide (CTAB) was dissolved in 120 ml of water with 875 μl 2M sodium hydroxide solution, at 80° C. Next, 1.2 ml of 98% tetraethylorthosilicate was added. After 15 min, 300 μl of 42% 3-(trihydroxysilyl) propyl methylphosphonate was added, and the mixture was stirred 2 hr. Particles were collected using centrifugation and washed with methanol. Acidic methanol was then used to remove any remaining CTAB surfactants. Zeta potential at 50 μg/mL was 43.75 mV [14]. All chemicals were obtained from Aldrich (St. Louis, MO). Particles were ˜120 nm in diameter, with 2.5 nm pores. Low molecular weight (1.8 kD branched polymer) polyethyleneimine (PEI) was electrostatically attached to the particle surface to provide a positive change to attract negatively charged siRNA [21]. To complex siRNA for in vitro experiments, 10 μl siRNA at 10 μM was mixed with 70 ul MSNs at 500 μg/ml and 20 μl water, and the mixture was incubated overnight at 4° C. on a roller. The following day, 100 μl of the MSN-siRNA complexes was added to each well of a 6-well plate containing 1900 μl normal medium.
as §1, with “For film-based westerns, Blue Devil film (Genesee Scientific) and ECL Plus chemiluminescent substrate (Thermo Fisher) were used to detect protein. For digital westerns, the Syngene Pxi4 digital blot imager and Michigan Diagnostics FemtoGlow chemilumescent substrate were used.” left out

On to “si419: anti-TWIST siRNA; passenger 5′-GGACAAGCUGAGCAAGAUU-3′ (SEQ ID No: 1), guide 5′-AAUCUUGCUCAGCUUGUCCUU-3′ (SEQ ID No: 2) (listed as RNA, chemistry not fully specified)”, for which the TWIST knockdown entry in the series with TWIST [1] (A2780R) is on record as “successfully knocked down TWIST”; in the series on TWIST [1] (Ovcar8, double the usual dose (100 nM siRNA)), “minimal”; in the series with TWIST [2], “robust TWIST knockdown lasting one week post transfection”.
